In US6756504B2, “Sphingolipids” (Yissum Research Development Company of the Hebrew …, priority 2000, dated 2004):

What was measured:
acid sphingomyelinase = molecular target: T1, acid sphingomyelinase (Homo sapiens, UniProt P17405); experiment: Acid sphingomyelinase inhibition, HL60 sonicate; type: biochemical; conditions: pH 5.0, 300 μM
T1 construct: a sonicate of HL60 leukemic cells was used as enzyme source; endogenous in cells; host or cells: HL60 leukemic cells (sonicate)
T1 sequence (P17405 47-631): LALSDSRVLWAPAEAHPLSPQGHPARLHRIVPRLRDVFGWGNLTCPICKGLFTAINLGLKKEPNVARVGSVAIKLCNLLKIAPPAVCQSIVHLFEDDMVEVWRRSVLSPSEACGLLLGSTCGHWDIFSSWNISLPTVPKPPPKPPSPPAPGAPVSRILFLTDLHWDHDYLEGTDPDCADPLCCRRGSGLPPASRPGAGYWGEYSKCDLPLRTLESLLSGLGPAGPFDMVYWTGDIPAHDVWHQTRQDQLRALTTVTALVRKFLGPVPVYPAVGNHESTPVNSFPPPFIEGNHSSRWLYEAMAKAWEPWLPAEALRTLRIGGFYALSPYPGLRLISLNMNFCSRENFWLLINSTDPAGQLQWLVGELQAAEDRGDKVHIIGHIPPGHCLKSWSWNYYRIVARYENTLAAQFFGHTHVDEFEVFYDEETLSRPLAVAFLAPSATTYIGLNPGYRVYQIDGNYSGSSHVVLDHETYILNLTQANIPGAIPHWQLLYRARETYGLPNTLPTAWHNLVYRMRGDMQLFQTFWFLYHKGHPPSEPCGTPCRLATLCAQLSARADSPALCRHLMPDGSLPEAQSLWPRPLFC
Experimental: (§1) N-hexyl-sphingosyl phosphorylcholine (AD-2144) was tested as to its inhibitory effect on sphingomyelinases, acidic (i.e., with an optimum at about pH 5) or neutral (with a pH optimum at about pH 7.4). For this purpose a sonicate of HL60 leukemic cells was used as enzyme source. Increasing concentrations of AD-2144 were dispersed by a mixture of fluorescent and non-fluorescent sphingomyelin (Bodipy-C12-SPM:SPM, 1:19), buffer and 0.25% Triton-X10O in a volume of 100 μl. For acid sphingomyelinase 0.4M acetate buffer pH 5.0 was used; for neutral sphingomyelinase 0.2M Tris buffer, pH 7.4 and 5 mM magnesium chloride. To 100 μl of these dispersions, 100 μl of HL60 cells sonicate were added. Incubation was 2-3 hours after which 0.8 ml of chloroform:methanol 2:1 were added, stirred and the lower, chloroform phase was collected, dried and applied to a thin layer chromatography plate. The plate was developed in a mixture of chloroform and methanol, 87:3. The fluorescence of the product, i.e., Bodipy-C12-ceramide, was quantified.

neutral sphingomyelinase = experiment: Neutral sphingomyelinase inhibition, HL60 sonicate; type: biochemical, Human; conditions: pH 7.4, 300 μM
Experimental: as §1

HL60 cells [1] = experiment: HL60 total protein content (Bradford); type: cell-based, Human
Experimental: (§2) HL60: Human leukemia cell line (ATCC CCL-240).
The effect of the AD-2646 compound on cell viability was further supported when the total protein content was quantified. HL60 cells were incubated as described above, with different concentrations of AD-2646. After 2 days the cells were collected, washed twice with saline, dispersed and following a short pulsing with a probe-sonicator their protein content was quantified by the Bradford procedure. Similarly to the viable cell counting results, the protein measurements indicated an IC50 value of 5 μM.
To analyze whether the AD-2646 compound may mediate its effect on cell viability and on total protein content, in cooperation with other compounds, the cooperative effect of this compound and Taxol was next evaluated. HL60 cells were incubated for two days with 4 μM AD2646 in the presence or absence of 2 ng Taxol.
The effect of different compounds of the invention on cell viability was next evaluated by measuring total cell protein quantity. Different cell lines were incubated for two days in the presence of increasing concentrations of the different compounds of the present invention.

HL60 cells [2] = experiment: HL60 cell viability, viable cell count (trypan blue); type: cell-based, Human; conditions: HL60, 2 days, FIG. 1, read-out: IC50, number of living (non-blue) cells
Experimental: as §2
The effect of AD-2646 on cell viability was analyzed by measuring cell mortality (viable cell count) and/or total protein quantity.
HL60 cells grown in RMPI plus 10% fetal calf serum, were incubated with increasing concentrations of (2R,3R)-2-(N-tetradecylamine)-1-(4-nitro-phenyl)-1,3-propanediol (AD-2646) in 6- or 24-well dishes. […] After 2 days the cells were collected, washed twice with saline, treated with trypan blue and the number of living (non-blue) cells was counted. FIG. 1 indicates an IC50 value of 5 μM.
Kinetic of the observed killing effect of the AD-2646 compound was next examined. HL60 cells were incubated with 40 μM of AD-2646 for 1, 3, 5 and 7 hours. Already after 1 hour a reduction of 60% of the viable cell number was observed.

HL60 cells [3] = experiment: Apoptosis in HL60 cells, propidium iodide flow cytometry (FACS); type: cell-based, Human
Experimental: The apoptotic effect of three different compounds was further examined on HL60 cells using a flow cytometry method. […] Washed cells were then treated with 5% Triton and stained with propidium iodide 0.5% mg in 0.1% sodium citrate pH 7.4. Analysis was performed using a Becton Dickinson Fluorescence Activated Cell Sorter (FACS).

[4] = test system: Bod3-SPM (sphingomyelin) synthesis in HL60 cells; experiment: Sphingolipid metabolism from Bodipy-C3-ceramide: Bod3-SPM in HL60; type: cell-based, Human; conditions: for IC50: HL60, 3 hours, 2.5 μM Bodipy-C3-ceramide, read-out: od 3-SPM (IC50 for reduction of Bod3-SPM, cell+medium); for inhibition of Bod3-SPM (fluorescent image): HL60, 10 μM
Experimental: (§3) In order to examine the effect of the different compounds on sphingolipids metabolism, different cell lines were incubated with increasing concentrations of different compounds of the invention in the presence of 2.5 μM Bodipy-C3-ceramide that was added to the culture medium as a solution in dimethylsulfoxide (not exceeding 0.1% DMSO of the final volium). After 3 hours, cells and medium were collected and centrifuged. Cells were next extracted with chloroform-methanol containing 2% acetic acid 1:1 (by volume) and the medium was shaken with an equal volume of chloroform-methanol, 1:1 (by volume). The phases were separated by centrifugation and the lower chloroform phase was collected. The solvents were evaporated and applied to thin layer chromatography silica gel plates (Whatman 4865-821) with a concentrating zone.
(§4) Plates were developed as follows: For medium: in chloroform-methanol-H2O, 75:25:4 by volume. For cells: plates were first developed with chloroform-methanol, 9:1, then dried and re-run in chloroform-methanol: H2O, 65:35:4.
(§5) Standards of Bodipy-C3-ceramide: Bodipy-C3-glucosylceramide (Bod3-GC) and Bodipy C3 sphingomyelin (Bod3-SPM) were used as markers. The fluorescence of the respective Bod3-SPM and Bod3-GC spots was quantified using a Fuji FLA-2000 scanner.

[5] = test system: Bod3-GC (glucosylceramide) synthesis in HL60 cells; experiment: Sphingolipid metabolism from Bodipy-C3-ceramide: Bod3-GC in HL60; type: cell-based, Human; conditions: for reduction of the level of Bod3-GC (fluorescent image): HL60, 10 μM
Experimental: as §3, §4, §5

[6] = test system: Bod3-SPM synthesis in TSU-PR1 prostate cancer cells; experiment: Sphingolipid metabolism: Bod3-SPM in TSU-PR1; type: cell-based; conditions: TSU-PR1, 3 hours, FIG. 5; read-out: IC50 for reduction of Bod3-SPM
Experimental: as §3, §4, §5
The effect of AD-2646 on sphingolipid metabolism was further examined using TSU-PR1 prostate cancer cells.

Swiss mice = experiment: In vivo toxicity of AD-2646, mice viability
Experimental: Six groups, each of 5 Swiss mice were injected, intra-peritoneally with solutions of AD-2646, at varying concentrations, each in a volume of 100 μl. Injections were performed on days 1, 2, 3, 4, and mice viability was tested (Table 5).

[7] = literature (Wieder et al. 1998); cited from earlier work
[8] = HL60, two days, 4 μM AD-2646 plus 2 ng Taxol

CCCCCCCCCCCCC/C=C/[C@H](O)[C@@H](COP(=O)([O-])OCC[N+](C)(C)C)NCCCCCC [AD-2144, L-Erythro Sphingosyl Phosphorylcholine-N-Hexyl]
reduction in Bodipy-C12-ceramide (acid sphingomyelinase): over 60% | reduction in Bodipy-C12-ceramide (neutral sphingomyelinase): over 60%

CC(C)(C)OC(=O)NCCCCCCCCCCCC(=O)Nc1ccc([C@H](O)[C@@H](CO)NC(=O)OC(C)(C)C)cc1 [AD-2620, (2R,3S)-2-BOC-amino-1-[4-N-(dodecanoyl-12-N-BOC amine)-phenyl)-1,3-propanediol]
IC50 (HL60 cells [1]; HL60, two days, read-out: C50 (cell viability, total cell protein)): 3 µM

CCCCCCCCCCCCCCN[C@H](CO)[C@H](O)c1ccc([N+](=O)[O-])cc1 [AD-2646, (2R,3R)-2-(N-tetradecylamine)-1-(4-nitrophenyl)-1,3-propanediol]
IC50 (HL60 cells [2]): 5 µM | IC50 (HL60 cells [1]; HL60, 2 days, Bradford, read-out: IC50, protein content): 5 µM | Protein content (HL60 cells [1]; [8]): 93 µg | cooperative effect with Taxol on total protein quantity (HL60 cells [1]; [8]): synergism | apoptotic cells (HL60 cells [3]; HL60, 3 hours, 10 μM): 12% | apoptotic cells (HL60 cells [3]; HL60, 3 hours, 20 μM): 18% | apoptotic cells (HL60 cells [3]; HL60, 3 hours, 40 μM): 26% | apoptotic cells (HL60 cells [3]; HL60, 24 hours, 10 μM): about 50% | IC50 [4]: ~6 µM | IC50 ([5]; HL60, 3 hours, 2.5 μM Bodipy-C3-ceramide, read-out: od 3-GC (IC50 for Bod3-GC reduction)): 12 µM | IC50 [6]: ~5 µM | No. of mice in each day (Swiss mice; 1 mg/kg i.p. days 1-4, groups of 5 mice, day 1): 5 | No. of mice in each day (Swiss mice; 1 mg/kg i.p. days 1-4, groups of 5 mice, day 2): 5 | No. of mice in each day (Swiss mice; 1 mg/kg i.p. days 1-4, groups of 5 mice, day 3): 5 | No. of mice in each day (Swiss mice; 1 mg/kg i.p. days 1-4, groups of 5 mice, day 4): 5 | No. of mice in each day (Swiss mice; 1 mg/kg i.p. days 1-4, groups of 5 mice, day 5): 5 | No. of mice in each day (Swiss mice; 1 mg/kg i.p. days 1-4, groups of 5 mice, day 6): 5 | No. of mice in each day (Swiss mice; 5 mg/kg i.p. days 1-4, groups of 5 mice, day 1): 5 | No. of mice in each day (Swiss mice; 5 mg/kg i.p. days 1-4, groups of 5 mice, day 2): 5 | No. of mice in each day (Swiss mice; 5 mg/kg i.p. days 1-4, groups of 5 mice, day 3): 5 | No. of mice in each day (Swiss mice; 5 mg/kg i.p. days 1-4, groups of 5 mice, day 4): 5 | No. of mice in each day (Swiss mice; 5 mg/kg i.p. days 1-4, groups of 5 mice, day 5): 5 | No. of mice in each day (Swiss mice; 5 mg/kg i.p. days 1-4, groups of 5 mice, day 6): 5 | No. of mice in each day (Swiss mice; 10 mg/kg i.p. days 1-4, groups of 5 mice, day 1): 5 | No. of mice in each day (Swiss mice; 10 mg/kg i.p. days 1-4, groups of 5 mice, day 2): 5 | No. of mice in each day (Swiss mice; 10 mg/kg i.p. days 1-4, groups of 5 mice, day 3): 5 | No. of mice in each day (Swiss mice; 10 mg/kg i.p. days 1-4, groups of 5 mice, day 4): 5 | No. of mice in each day (Swiss mice; 10 mg/kg i.p. days 1-4, groups of 5 mice, day 5): 5 | No. of mice in each day (Swiss mice; 10 mg/kg i.p. days 1-4, groups of 5 mice, day 6): 5 | No. of mice in each day (Swiss mice; 25 mg/kg i.p. days 1-4, groups of 5 mice, day 2): 5 | No. of mice in each day (Swiss mice; 25 mg/kg i.p. days 1-4, groups of 5 mice, day 3): 5 | No. of mice in each day (Swiss mice; 25 mg/kg i.p. days 1-4, groups of 5 mice, day 4): 5 | No. of mice in each day (Swiss mice; 25 mg/kg i.p. days 1-4, groups of 5 mice, day 5): 5 | No. of mice in each day (Swiss mice; 25 mg/kg i.p. days 1-4, groups of 5 mice, day 6): 5 | No. of mice in each day (Swiss mice; 50 mg/kg i.p. days 1-4, groups of 5 mice, day 1): 5 | No. of mice in each day (Swiss mice; 50 mg/kg i.p. days 1-4, groups of 5 mice, day 2): 5

CCCCCCCCCCCCCCN[C@H](CO)[C@H](O)c1ccc(N)cc1 [AD-2672, (2R,3R)-2-(N-tetradecylamine)-1-(4-aminophenyl)-1,3-propanediol]
effect on level of Bod3-SPM (fluorescent image) ([4]; HL60, 5 and 10 μM, FIG. 6): strongly reduces | IC50 [4]: 4 µM | effect on level of Bod3-GC (fluorescent image) ([5]; HL60, 5 and 10 μM, FIG. 6): not

CCCCCCCCCCCC(=O)Nc1ccc([C@@H](O)[C@H](N)CO)cc1 [AD-2673, (2R,3R)-2 amino-1-(N-dodecanoylaminophenyl)-1,3-propanediol]
inhibition of Bod3-SPM (fluorescent image) ([4]; FIG. 6): low inhibition | IC50 [4]: 6 µM | reduction of the level of Bod3-GC (fluorescent image) ([5]; FIG. 6): much stronger reduction

CCCCCCCCCCCC(=O)Nc1ccc([C@H](O)[C@@H](N)CO)cc1 [AD-2674]
inhibition of Bod3-SPM (fluorescent image) ([4]; FIG. 6): low inhibition | reduction of the level of Bod3-GC (fluorescent image) ([5]; FIG. 6): much stronger reduction

CCCCCCCCCCCCCCCCOP(=O)([O-])OCC[N+](C)(C)C [HePC, hexadecylphosphocholine]
concentration shown to induce apoptosis [7]: 25 µM

CC(=O)O[C@H]1C(=O)[C@@]2(C)[C@H]([C@H](OC(=O)c3ccccc3)[C@]3(O)C[C@H](OC(=O)[C@H](O)[C@@H](NC(=O)c4ccccc4)c4ccccc4)C(C)=C1C3(C)C)[C@]1(OC(C)=O)CO[C@@H]1C[C@@H]2O [Taxol, reference compound]
Protein content (HL60 cells [1]; HL60, two days, 2 ng Taxol alone): 206 µg
